Reference: ChEMBL document CHEMBL1201862, “PubChem BioAssay data set” (2004)
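These data come from cells grown in 96-well plates and exposed to compound for 48 hours at five concentrations. The concentration for 50% growth inhibition is given as GI50.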 The source made the active and inactive calls. Cut-off read from the data, not from the text of the source: active = GI50 up to about 1.1 µM and inactive = higher.

Tests used:
Assay in all cases: DTP human tumour cell line panel, 48 h
UO-31 = system: UO-31
OVCAR-5 = system: OVCAR-5
NCI-H23 = system: NCI-H23
HT-29 = system: HT-29
NCI-H522 = system: NCI-H522
SF-539 = system: SF-539
A498 = system: A498
U-251 = system: U-251
A549 = system: A549
Malme-3M = system: Malme-3M
BT-549 = system: BT-549
Hs-578T = system: Hs-578T
LOX IMVI = system: LOX IMVI
RXF 393 = system: RXF 393
NCI/ADR-RES = system: NCI/ADR-RES
SF-295 = system: SF-295
SK-OV-3 = system: SK-OV-3
SR = system: SR
SN12C = system: SN12C
T47D = system: T47D

Row | Structure (SMILES) | GI50 (UO-31) | GI50 (OVCAR-5) | GI50 (NCI-H23) | GI50 (HT-29) | GI50 (NCI-H522) | GI50 (SF-539) | GI50 (A498) | GI50 (U-251) | GI50 (A549) | GI50 (Malme-3M) | GI50 (BT-549) | GI50 (Hs-578T) | GI50 (LOX IMVI) | GI50 (RXF 393) | GI50 (NCI/ADR-RES) | GI50 (SF-295) | GI50 (SK-OV-3) | GI50 (SR) | GI50 (SN12C) | GI50 (T47D)
1 | CCOc1ccc(NCC2CC/C(=C\c3ccc(O)cc3)C2=O)cc1 (stereo not given) | 19.4 µM (inactive) | 15.6 µM (inactive) | 23.3 µM (inactive) | 15.6 µM (inactive) | 6.14 µM (inactive) | 19.1 µM (inactive) | 18.2 µM (inactive) | 16.7 µM (inactive) | 21.2 µM (inactive) | 14.9 µM (inactive) | 12.9 µM (inactive) | 28.8 µM (inactive) | 12.2 µM (inactive) | 18.7 µM (inactive) | 18 µM (inactive) | 24.5 µM (inactive) | > 44.7 µM (inactive) | 2.19 µM (inactive) | 18.5 µM (inactive) | 19 µM (inactive)
2 | CCOC(=O)c1cc(Sc2ccc(N)c(C(=O)OCC)c2)ccc1N |  | 12.1 µM (inactive) | 25.3 µM (inactive) | 28.8 µM (inactive) | 4.38 µM (inactive) | 24.9 µM (inactive) | 21.6 µM (inactive) | 27.9 µM (inactive) | 19.6 µM (inactive) | 11.6 µM (inactive) | > 100 µM (inactive) | 21.5 µM (inactive) |  | 11.5 µM (inactive) | 5.25 µM (inactive) | 3.3 µM (inactive) | > 100 µM (inactive) | 6.95 µM (inactive) | 18 µM (inactive) | > 100 µM (inactive)
3 | COc1ccc(-c2cc(-c3ccccc3)nc(N)n2)c(O)c1 | 2.13 µM (inactive) | > 100 µM (inactive) | > 100 µM (inactive) | > 26.9 µM (inactive) | 2.78 µM (inactive) | > 100 µM (inactive) | > 100 µM (inactive) | 12.6 µM (inactive) | 12.8 µM (inactive) | > 100 µM (inactive) | 1.7 µM (inactive) | > 100 µM (inactive) | 6.78 µM (inactive) | > 100 µM (inactive) | > 52 µM (inactive) | > 86.1 µM (inactive) | 7 µM (inactive) | 4.3 µM (inactive) | > 25.3 µM (inactive) | 5.86 µM (inactive)
4 | COc1cc(O)c2c(=O)c(OC)c(-c3ccc(OC)c(O)c3)oc2c1 [AYANIN] | 28.9 µM (inactive) | 37.4 µM (inactive) | 69.5 µM (inactive) | 79.1 µM (inactive) | 29.1 µM (inactive) | 18.4 µM (inactive) | 3.44 µM (inactive) | > 100 µM (inactive) | 76.6 µM (inactive) | 24 µM (inactive) | 20.4 µM (inactive) | 7.85 µM (inactive) | 20.7 µM (inactive) | 57.3 µM (inactive) | > 100 µM (inactive) | 7.78 µM (inactive) | 35.7 µM (inactive) | 22.1 µM (inactive) | 61.9 µM (inactive) | 3.83 µM (inactive)
5 | NC1=NC(c2ccc(Cl)cc2)N(c2ccc(S(N)(=O)=O)cc2)C(N)=N1 (stereo not given) | > 100 µM (inactive) | > 100 µM (inactive) | > 100 µM (inactive) | > 100 µM (inactive) | > 100 µM (inactive) | > 100 µM (inactive) | > 100 µM (inactive) | > 100 µM (inactive) | > 100 µM (inactive) | > 100 µM (inactive) | > 100 µM (inactive) | > 100 µM (inactive) | > 100 µM (inactive) | > 100 µM (inactive) | > 100 µM (inactive) | > 100 µM (inactive) | > 100 µM (inactive) | > 100 µM (inactive) | > 100 µM (inactive) | > 100 µM (inactive)
6 | C(=C\c1nccs1)/c1cccc(/C=C/c2nccs2)n1 | > 50 µM (inactive) | > 50 µM (inactive) | > 50 µM (inactive) | > 50 µM (inactive) | > 50 µM (inactive) | > 50 µM (inactive) | > 50 µM (inactive) | 34.8 µM (inactive) | > 50 µM (inactive) | > 50 µM (inactive) | > 50 µM (inactive) | > 50 µM (inactive) | > 50 µM (inactive) | > 50 µM (inactive) | > 50 µM (inactive) | > 50 µM (inactive) | > 50 µM (inactive) | > 50 µM (inactive) | > 50 µM (inactive) | 31.2 µM (inactive)
7 | COc1ccc2c3c1OC1C34CCN(C)C(C2)C4=CC(I)C1(OC)OC (stereo not given) | 14.9 µM (inactive) | 18.6 µM (inactive) | 7.41 µM (inactive) | 7.66 µM (inactive) | 5.27 µM (inactive) | 1.79 µM (inactive) | 22.9 µM (inactive) | 16.2 µM (inactive) | 22.2 µM (inactive) | 7.21 µM (inactive) | 21.6 µM (inactive) | 37 µM (inactive) | 7.33 µM (inactive) | 10.5 µM (inactive) | 41.5 µM (inactive) | 41.5 µM (inactive) | 15 µM (inactive) | 2.36 µM (inactive) | 5.78 µM (inactive) | 16.3 µM (inactive)
8 | Cc1occc1C(=S)Nc1ccc(Cl)c(C(=O)OC(C(C)C)C(C)C)c1 | 5 µM (inactive) | 22.6 µM (inactive) | 8.15 µM (inactive) | 14.1 µM (inactive) | 11.8 µM (inactive) | 16.4 µM (inactive) | 13.6 µM (inactive) | 10.8 µM (inactive) | 11.6 µM (inactive) | 12 µM (inactive) | 16.6 µM (inactive) | 17.6 µM (inactive) | 13 µM (inactive) | 13.3 µM (inactive) | 9.98 µM (inactive) | 5.47 µM (inactive) | 18.4 µM (inactive) | 7 µM (inactive) | 14.9 µM (inactive) | 4.49 µM (inactive)
9 | CC(C)(Cl)C(Cl)CC/C(CBr)=C(\Cl)CBr (stereo not given) | 3.08 µM (inactive) | 2.29 µM (inactive) | 1.85 µM (inactive) | 2.84 µM (inactive) | 0.55 µM (active) | 2.4 µM (inactive) | 19.2 µM (inactive) | 1.83 µM (inactive) | 10.6 µM (inactive) | 2.11 µM (inactive) | 1.75 µM (inactive) | 1.85 µM (inactive) | 0.209 µM (active) | 1.53 µM (inactive) | 2.77 µM (inactive) | 6.49 µM (inactive) | 4.31 µM (inactive) | 0.443 µM (active) | 2.45 µM (inactive) | 1.96 µM (inactive)
10 | O=C(O)COc1c(Cl)cc(Cl)c2cccnc12 | > 100 µM (inactive) | > 100 µM (inactive) | > 100 µM (inactive) | > 100 µM (inactive) | > 100 µM (inactive) | > 100 µM (inactive) | > 100 µM (inactive) | > 100 µM (inactive) | > 100 µM (inactive) | > 100 µM (inactive) | > 100 µM (inactive) | > 100 µM (inactive) | > 100 µM (inactive) | > 100 µM (inactive) | > 100 µM (inactive) | > 100 µM (inactive) | > 100 µM (inactive) | > 100 µM (inactive) | > 100 µM (inactive) | > 100 µM (inactive)
11 | C=C(C)C(=O)OC1CC2(C)OC2CC(OC(C)=O)/C(C)=C/C2OC(=O)C(=C)C21 (stereo not given) | 2.68 µM (inactive) | 5.83 µM (inactive) | 2.76 µM (inactive) | 1.31 µM (inactive) | 0.124 µM (active) | 2.82 µM (inactive) | 12.9 µM (inactive) | 12.5 µM (inactive) | 19 µM (inactive) | 0.573 µM (active) | 1.09 µM (active) | 2.3 µM (inactive) | 2.73 µM (inactive) | 2.04 µM (inactive) | 2.68 µM (inactive) | 16.2 µM (inactive) | 29 µM (inactive) | 1.08 µM (active) | 2.52 µM (inactive) | 3.48 µM (inactive)
12 | CC1=C(N2CC2)C(=O)C(CO)=C(N2CC2)C1=O | 0.0101 µM (active) | 0.067 µM (active) | 0.0169 µM (active) | 0.0132 µM (active) | 0.013 µM (active) | < 0.0123 µM (active) | 0.0575 µM (active) | 0.0141 µM (active) |  | 0.0357 µM (active) | 0.13 µM (active) | 0.234 µM (active) | < 0.01 µM (active) | 0.0231 µM (active) | 0.0106 µM (active) | 0.013 µM (active) | 0.0516 µM (active) | < 0.01 µM (active) | < 0.0102 µM (active) | 0.0114 µM (active)
13 | CC(=O)NNC(=S)N/C=C1/C(=O)Oc2ccccc2C1=O | > 100 µM (inactive) | > 100 µM (inactive) | > 100 µM (inactive) | > 100 µM (inactive) | > 100 µM (inactive) | > 100 µM (inactive) | > 100 µM (inactive) | > 100 µM (inactive) | > 100 µM (inactive) | > 100 µM (inactive) | > 100 µM (inactive) | > 100 µM (inactive) | > 100 µM (inactive) | 0.0703 µM (active) | > 100 µM (inactive) | > 100 µM (inactive) |  | > 100 µM (inactive) | > 100 µM (inactive) | 5.2 µM (inactive)
14 | CCCc1c(O)nc(Nc2nc3ccccc3[nH]2)[nH]c1=O | > 100 µM (inactive) | > 100 µM (inactive) | > 100 µM (inactive) | > 100 µM (inactive) | 71.3 µM (inactive) | > 100 µM (inactive) | > 100 µM (inactive) | > 100 µM (inactive) | > 100 µM (inactive) | > 100 µM (inactive) | > 100 µM (inactive) | > 100 µM (inactive) |  | > 100 µM (inactive) | > 100 µM (inactive) | > 100 µM (inactive) | > 100 µM (inactive) | > 100 µM (inactive) | > 100 µM (inactive) | > 100 µM (inactive)
